This note sets out measurements from PubChem BioAssay (NCI).

Structures are written as SMILES.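 Following 48 hours of exposure in 96-well plates, responses at five concentrations were used to interpolate endpoints linearly. TGI: concentration producing complete growth inhibition.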

For this experiment, the system named is RXF-631 renal. Briefly: DTP human tumour cell line panel, 48 h.

In the case of `COc1ccccc1CC(C)N` (stereo unspecified), the concentration for total growth inhibition (TGI) (as a rule, the concentration at which net growth stops) is more than 100 µM.
